Measurements as given in ChEMBL document CHEMBL1201862, “PubChem BioAssay data set” (2004).
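Method: 48-hour compound exposure of cells in 96-well plates, five concentrations, linear interpolation of endpoints. GI50 marks 50% less growth.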 Activity calls are given as the source filed them. Rule as the data show it: active = GI50 up to about 1.1 µM and inactive = higher.

Assays:
Assay in all cases: NCI tumour cell line growth inhibition, 48 h
UACC-62 = test system: UACC-62
CCRF-CEM = test system: CCRF-CEM
MCF7 = test system: MCF7
NCI-H460 = test system: NCI-H460
DU-145 = test system: DU-145
A549 = test system: A549
OVCAR-8 = test system: OVCAR-8
HCT-116 = test system: HCT-116
EKVX = test system: EKVX
CAKI-1 = test system: CAKI-1
ACHN = test system: ACHN
OVCAR-4 = test system: OVCAR-4
SNB-19 = test system: SNB-19
SF-295 = test system: SF-295
TK-10 = test system: TK-10
PC-3 = test system: PC-3
OVCAR-3 = test system: OVCAR-3
T47D = test system: T47D
SK-MEL-5 = test system: SK-MEL-5
UACC-257 = test system: UACC-257

Row | Structure (SMILES) | GI50 (UACC-62) | GI50 (CCRF-CEM) | GI50 (MCF7) | GI50 (NCI-H460) | GI50 (DU-145) | GI50 (A549) | GI50 (OVCAR-8) | GI50 (HCT-116) | GI50 (EKVX) | GI50 (CAKI-1) | GI50 (ACHN) | GI50 (OVCAR-4) | GI50 (SNB-19) | GI50 (SF-295) | GI50 (TK-10) | GI50 (PC-3) | GI50 (OVCAR-3) | GI50 (T47D) | GI50 (SK-MEL-5) | GI50 (UACC-257)
1 | [O-][N+]1(CC[N+]2([O-])CCCCC2)CCCCC1 | > 100 µM (inactive) | > 100 µM (inactive) | > 100 µM (inactive) | > 100 µM (inactive) | > 100 µM (inactive) | > 100 µM (inactive) | > 100 µM (inactive) | > 100 µM (inactive) | > 100 µM (inactive) | > 100 µM (inactive) | > 100 µM (inactive) | > 100 µM (inactive) | > 100 µM (inactive) | > 100 µM (inactive) | > 100 µM (inactive) | > 100 µM (inactive) | > 100 µM (inactive) | > 100 µM (inactive) | > 100 µM (inactive) | –
2 | CCP(=O)(OC)C1=CCN(C(=O)OCC[Si](C)(C)C)CC1 (configuration not stated) | > 100 µM (inactive) | > 100 µM (inactive) | > 100 µM (inactive) | > 100 µM (inactive) | > 100 µM (inactive) | > 100 µM (inactive) | > 100 µM (inactive) | – | > 100 µM (inactive) | > 100 µM (inactive) | > 100 µM (inactive) | > 100 µM (inactive) | > 100 µM (inactive) | > 100 µM (inactive) | > 100 µM (inactive) | > 100 µM (inactive) | > 100 µM (inactive) | > 100 µM (inactive) | > 100 µM (inactive) | > 100 µM (inactive)
3 | CCOC(=O)c1ccc(C(=O)/C(C#N)=C2\CCCN2)[nH]1 | > 100 µM (inactive) | 63.2 µM (inactive) | 98.4 µM (inactive) | > 100 µM (inactive) | > 100 µM (inactive) | 50.5 µM (inactive) | > 100 µM (inactive) | 82.4 µM (inactive) | 11.7 µM (inactive) | > 100 µM (inactive) | – | > 100 µM (inactive) | > 100 µM (inactive) | > 100 µM (inactive) | – | 67.8 µM (inactive) | 82.2 µM (inactive) | > 100 µM (inactive) | 41.9 µM (inactive) | > 100 µM (inactive)
4 | COc1cc(S(=O)(=O)Nc2ccc(-c3csc(/N=C\c4ccccc4)n3)cc2)ccc1Cl | 29.9 µM (inactive) | 17 µM (inactive) | 20.5 µM (inactive) | – | 85.1 µM (inactive) | > 100 µM (inactive) | > 100 µM (inactive) | 44.8 µM (inactive) | 30.3 µM (inactive) | > 100 µM (inactive) | > 100 µM (inactive) | 79.4 µM (inactive) | 31.6 µM (inactive) | 76.9 µM (inactive) | – | 48.2 µM (inactive) | 56.9 µM (inactive) | 35.9 µM (inactive) | 52.7 µM (inactive) | –
5 | CCCCC(C(=O)N/N=C/c1ccc([N+](=O)[O-])o1)C(=O)N/N=C/c1ccc([N+](=O)[O-])o1 | 2.91 µM (inactive) | 0.977 µM (active) | 4.51 µM (inactive) | 15.1 µM (inactive) | 5.37 µM (inactive) | 17.7 µM (inactive) | 2.05 µM (inactive) | 1.36 µM (inactive) | 13.4 µM (inactive) | 4.06 µM (inactive) | 1.82 µM (inactive) | 1.74 µM (inactive) | 3.64 µM (inactive) | 15.7 µM (inactive) | 2.28 µM (inactive) | 2.81 µM (inactive) | 2.32 µM (inactive) | 3.46 µM (inactive) | 3.37 µM (inactive) | –
6 | CCOc1cc(NC(C)=O)ccc1C(=O)NNS(=O)(=O)c1ccc(NC(C)=O)cc1 | 57.3 µM (inactive) | 38.9 µM (inactive) | 40.6 µM (inactive) | 39.6 µM (inactive) | > 100 µM (inactive) | 72.8 µM (inactive) | 69.3 µM (inactive) | 44.1 µM (inactive) | 56 µM (inactive) | 54.6 µM (inactive) | > 100 µM (inactive) | 73.6 µM (inactive) | 77.4 µM (inactive) | 39.4 µM (inactive) | – | 46.7 µM (inactive) | 34.6 µM (inactive) | > 100 µM (inactive) | 22.3 µM (inactive) | > 100 µM (inactive)
7 | C/C=C/CC(C(=O)OCC)(N(C)C(=O)OC(C)(C)C)S(=O)(=O)c1ccc(C)cc1 (configuration not stated) | 61.9 µM (inactive) | > 100 µM (inactive) | 53.7 µM (inactive) | – | > 100 µM (inactive) | 85.9 µM (inactive) | > 100 µM (inactive) | 70.6 µM (inactive) | > 100 µM (inactive) | > 100 µM (inactive) | > 100 µM (inactive) | > 100 µM (inactive) | > 100 µM (inactive) | 63.7 µM (inactive) | > 100 µM (inactive) | 71.8 µM (inactive) | > 100 µM (inactive) | > 100 µM (inactive) | 88.7 µM (inactive) | > 100 µM (inactive)
8 | COc1cc([C@@H]2c3cc4c(cc3[C@@H](/N=C/c3ccc(C(=O)O[C@H]5C[C@H]6OC[C@@]6(OC(C)=O)[C@H]6[C@H](OC(=O)c7ccccc7)[C@]7(O)C[C@H](OC(=O)[C@H](OC(=O)c8ccc(/C=N/[C@@H]9c%10cc%11c(cc%10[C@@H](c%10cc(OC)c(O)c(OC)c%10)[C@H]%10C(=O)OC[C@@H]%109)OCO%11)cc8)[C@@H](NC(=O)c8ccccc8)c8ccccc8)C(C)=C([C@@H](OC(C)=O)C(=O)[C@]56C)C7(C)C)cc3)C3COC(=O)C32)OCO4)cc(C)c1O (some centres not stated) | 6.32 µM (inactive) | 30 µM (inactive) | 7.6 µM (inactive) | 15.3 µM (inactive) | 24.5 µM (inactive) | 13.7 µM (inactive) | 17.9 µM (inactive) | 9.08 µM (inactive) | 14.5 µM (inactive) | 12.8 µM (inactive) | 20.8 µM (inactive) | > 29.6 µM (inactive) | 17.5 µM (inactive) | 5.07 µM (inactive) | > 50 µM (inactive) | 6.58 µM (inactive) | 6.85 µM (inactive) | > 50 µM (inactive) | 5.28 µM (inactive) | 26.2 µM (inactive)
9 | O=C1CSC2=NC3=C(COC/C3=C\c3ccc(F)cc3)C(c3ccc(F)cc3)N12 (configuration not stated) | > 100 µM (inactive) | 25.8 µM (inactive) | 42 µM (inactive) | 38.1 µM (inactive) | 35.2 µM (inactive) | – | 55.7 µM (inactive) | 35.9 µM (inactive) | 83.8 µM (inactive) | > 100 µM (inactive) | 71 µM (inactive) | 50.9 µM (inactive) | 94.2 µM (inactive) | 52.5 µM (inactive) | 99.5 µM (inactive) | 34.8 µM (inactive) | 49.7 µM (inactive) | 58.5 µM (inactive) | 71.4 µM (inactive) | > 100 µM (inactive)
10 | Cc1ccc(/C=C2\CCC/C(=C\c3ccc(O)c(CN4CCCCC4)c3)C2=O)cc1 | 3.92 µM (inactive) | – | 4.44 µM (inactive) | 3.96 µM (inactive) | 4.91 µM (inactive) | 9.4 µM (inactive) | 2.97 µM (inactive) | 2.74 µM (inactive) | 12.6 µM (inactive) | 14.6 µM (inactive) | 5.61 µM (inactive) | 11.1 µM (inactive) | 16.2 µM (inactive) | 10.7 µM (inactive) | 14.6 µM (inactive) | 8.05 µM (inactive) | 10.9 µM (inactive) | 13.4 µM (inactive) | 6.1 µM (inactive) | 5.09 µM (inactive)
11 | CCOC(=O)C1C(c2ccc(OC)cc2)c2c(n[nH]c2O)CC1(C)O (configuration not stated) | > 100 µM (inactive) | > 100 µM (inactive) | > 100 µM (inactive) | > 100 µM (inactive) | > 100 µM (inactive) | > 100 µM (inactive) | > 100 µM (inactive) | > 100 µM (inactive) | > 100 µM (inactive) | > 100 µM (inactive) | > 100 µM (inactive) | > 100 µM (inactive) | > 100 µM (inactive) | 45.1 µM (inactive) | > 100 µM (inactive) | > 100 µM (inactive) | > 100 µM (inactive) | > 100 µM (inactive) | > 100 µM (inactive) | > 100 µM (inactive)
12 | CN(C)c1ccc(/C=C2\N=C(c3ccccc3)N(c3nc4ccc(Sc5ccccc5)cc4[nH]3)C2=O)cc1 | 22.5 µM (inactive) | 16.7 µM (inactive) | 30 µM (inactive) | 30 µM (inactive) | 77.4 µM (inactive) | 41.5 µM (inactive) | 43 µM (inactive) | 36.3 µM (inactive) | 40.7 µM (inactive) | 35.4 µM (inactive) | 81.8 µM (inactive) | 40.3 µM (inactive) | 49.1 µM (inactive) | 23.6 µM (inactive) | 23.5 µM (inactive) | 39.1 µM (inactive) | 27.4 µM (inactive) | 44 µM (inactive) | 32.4 µM (inactive) | 24.3 µM (inactive)
13 | C=C(C)C1CC=C(C)C(=O)C1 (configuration not stated) [CARVONE] | – | > 100 µM (inactive) | > 100 µM (inactive) | > 100 µM (inactive) | > 100 µM (inactive) | > 100 µM (inactive) | > 100 µM (inactive) | > 100 µM (inactive) | > 100 µM (inactive) | > 100 µM (inactive) | > 100 µM (inactive) | > 100 µM (inactive) | > 100 µM (inactive) | > 100 µM (inactive) | > 100 µM (inactive) | > 100 µM (inactive) | > 100 µM (inactive) | > 100 µM (inactive) | > 100 µM (inactive) | > 100 µM (inactive)
